This passage reports MIC results from ChEMBL document CHEMBL1649490, “First detection of plasmid-encoded blaOXY beta-lactamase” (2009).

Common to all, as to type: functional
Assay [1] concerns Klebsiella pneumoniae. Kind of assay: Antimicrobial activity against Klebsiella pneumoniae 101A harboring beta-lactamase CMY-2 by Etest method.
Assay [2] deals with Klebsiella oxytoca. As to the kind of experiment: Antimicrobial activity against Klebsiella oxytoca KO279 harboring beta-lactamase OXY-1 by Etest method.
In assay [3] the test system is Klebsiella pneumoniae. Kind of assay: Antimicrobial activity against Klebsiella pneumoniae 278 harboring beta-lactamase OXY-1 by Etest method.
In assay [4] the test system is Klebsiella pneumoniae. As to the kind of experiment: Antimicrobial activity against Klebsiella pneumoniae 278sp by Etest method.
In assay [5] the test system is Escherichia coli. Kind of assay: Antimicrobial activity against Escherichia coli TF-KO281 harboring beta-lactamase OXY-1 by Etest method.
Assay [6] relates to Klebsiella oxytoca. Kind of assay: Antimicrobial activity against Klebsiella oxytoca KO281 harboring beta-lactamase OXY-1 and CMY-2 by Etest method.
In assay [7] the test system is Escherichia coli. Kind of assay: Antimicrobial activity against Escherichia coli DH5alpha by Etest method. The following applies: DH5[alpha].
Assay [8] concerns Klebsiella oxytoca. Kind of assay: Antimicrobial activity against Klebsiella oxytoca KO280 harboring beta-lactamase OXY-1 by Etest method.
Assay [9] relates to Escherichia coli. Kind of assay: Antimicrobial activity against Escherichia coli TF-KO279 harboring beta-lactamase OXY-1 by Etest method.
Assay [10] concerns Escherichia coli. Kind of assay: Antimicrobial activity against Escherichia coli TF-KP278 harboring beta-lactamase OXY-1 by Etest method.

≈ marks a conversion by molar mass, not a printed value.

Take `CO/N=C(\C(=O)N[C@@H]1C(=O)N2C(C(=O)[O-])=C(C[N+]3(C)CCCC3)CS[C@H]12)c1csc(N)n1` [CEFEPIME]: the minimal inhibitory concentration (MIC) (as a rule, the lowest concentration found to suppress growth) amounted to 0.5 µg/mL (≈ 1.04 µM) against Klebsiella pneumoniae [1]; 1.5 µg/mL (≈ 3.12 µM) against Klebsiella oxytoca [2]; 1 µg/mL (≈ 2.08 µM) in the assay on Klebsiella pneumoniae [3]; 0.19 µg/mL (≈ 0.395 µM) with Klebsiella pneumoniae [4]; 0.38 µg/mL (≈ 0.791 µM) in the assay on Escherichia coli [5]; 1.5 µg/mL (≈ 3.12 µM) against Klebsiella oxytoca [6]. For the same compound, the MIC in the assay on Escherichia coli [7] is 0.032 µg/mL (≈ 0.0666 µM); against Klebsiella oxytoca [8], 1.5 µg/mL (≈ 3.12 µM).
Regarding `CC1(C)S[C@@H]2[C@H](NC(=O)[C@H](N)c3ccccc3)C(=O)N2[C@H]1C(=O)O` [AMPICILLIN], the MIC is at least 256 µg/mL in the assay on Escherichia coli [9]; at least 256 µg/mL in the assay on Klebsiella pneumoniae [1]; at least 256 µg/mL in the assay with Klebsiella oxytoca [2]; at least 256 µg/mL against Escherichia coli [10]; at least 256 µg/mL against Klebsiella pneumoniae [3]; 96 µg/mL (≈ 275 µM) with Klebsiella pneumoniae [4]. The minimum inhibitory concentration (MIC) against Escherichia coli [5] is at least 256 µg/mL; against Klebsiella oxytoca [6], at least 256 µg/mL; against Escherichia coli [7], 4 µg/mL (≈ 11.4 µM); against Klebsiella oxytoca [8] it was at least 256 µg/mL.
As for `O=C(O)c1cn(C2CC2)c2cc(N3CCNCC3)c(F)cc2c1=O` [CIPROFLOXACIN], the minimum inhibitory concentration (MIC) with Klebsiella pneumoniae [1] is 0.047 µg/mL (≈ 0.142 µM); with Klebsiella oxytoca [2], 0.38 µg/mL (≈ 1.15 µM); in the assay on Klebsiella pneumoniae [3], 0.38 µg/mL (≈ 1.15 µM); against Klebsiella pneumoniae [4] it was 0.047 µg/mL (≈ 0.142 µM); against Klebsiella oxytoca [6], 0.38 µg/mL (≈ 1.15 µM); against Escherichia coli [7] it was 0.032 µg/mL (≈ 0.0966 µM). In the assay with Klebsiella oxytoca [8], this compound returned an MIC of 0.25 µg/mL (≈ 0.754 µM).
Regarding `C[C@@H](O)[C@H]1C(=O)N2C(C(=O)O)=C(SCCNC=N)C[C@H]12` [IMIPENEM ANHYDROUS], the MIC against Escherichia coli [9] was found to be 0.19 µg/mL (≈ 0.635 µM); against Klebsiella pneumoniae [1], 0.38 µg/mL (≈ 1.27 µM); with Klebsiella oxytoca [2], 0.25 µg/mL (≈ 0.835 µM); against Escherichia coli [10], 0.19 µg/mL (≈ 0.635 µM); in the assay on Klebsiella pneumoniae [3], 0.25 µg/mL (≈ 0.835 µM); against Klebsiella pneumoniae [4], 0.25 µg/mL (≈ 0.835 µM). Besides, the minimum inhibitory concentration (MIC) was determined as 0.19 µg/mL (≈ 0.635 µM) in the assay with Escherichia coli [5], 0.25 µg/mL (≈ 0.835 µM) with Klebsiella oxytoca [6], 0.19 µg/mL (≈ 0.635 µM) in the assay on Escherichia coli [7] and 0.25 µg/mL (≈ 0.835 µM) with Klebsiella oxytoca [8].
With `CO/N=C(\C(=O)N[C@@H]1C(=O)N2C(C(=O)O)=C(COC(C)=O)CS[C@H]12)c1csc(N)n1` [CEFOTAXIME], the MIC in the assay on Escherichia coli [9] was 0.25 µg/mL (≈ 0.549 µM); against Klebsiella pneumoniae [1], 6 µg/mL (≈ 13.2 µM); against Klebsiella oxytoca [2] it was 1.5 µg/mL (≈ 3.29 µM); with Escherichia coli [10], 0.25 µg/mL (≈ 0.549 µM); with Klebsiella pneumoniae [3], 1 µg/mL (≈ 2.2 µM); in the assay with Klebsiella pneumoniae [4], 0.047 µg/mL (≈ 0.103 µM). The MIC amounted to 0.38 µg/mL (≈ 0.834 µM) against Escherichia coli [5], 16 µg/mL (≈ 35.1 µM) with Klebsiella oxytoca [6], 0.023 µg/mL (≈ 0.0505 µM) in the assay with Escherichia coli [7] and 1.5 µg/mL (≈ 3.29 µM) in the assay with Klebsiella oxytoca [8].
On to `CCn1cc(C(=O)O)c(=O)c2cc(F)c(N3CCNCC3)cc21` [NORFLOXACIN], for which the MIC is 0.5 µg/mL (≈ 1.57 µM) in the assay on Escherichia coli [9]; 0.125 µg/mL (≈ 0.391 µM) against Klebsiella pneumoniae [1]; 1.5 µg/mL (≈ 4.7 µM) in the assay with Klebsiella oxytoca [2]; 0.38 µg/mL (≈ 1.19 µM) in the assay with Escherichia coli [10]; 1 µg/mL (≈ 3.13 µM) with Klebsiella pneumoniae [3]; 0.125 µg/mL (≈ 0.391 µM) against Klebsiella pneumoniae [4]. Further, the MIC against Escherichia coli [5] came to 0.5 µg/mL (≈ 1.57 µM); in the assay on Klebsiella oxytoca [6], 1.5 µg/mL (≈ 4.7 µM); in the assay with Escherichia coli [7] it was 0.094 µg/mL (≈ 0.294 µM); against Klebsiella oxytoca [8], 1 µg/mL (≈ 3.13 µM).
With `C[C@H]1[C@H](NC(=O)/C(=N\OC(C)(C)C(=O)O)c2csc(N)n2)C(=O)N1S(=O)(=O)O` [AZTREONAM], the MIC against Escherichia coli [9] was 64 µg/mL (≈ 147 µM); in the assay with Klebsiella pneumoniae [1], 6 µg/mL (≈ 13.8 µM); in the assay on Klebsiella oxytoca [2], at least 256 µg/mL; against Escherichia coli [10], 64 µg/mL (≈ 147 µM); against Klebsiella pneumoniae [3], 32 µg/mL (≈ 73.5 µM); against Klebsiella pneumoniae [4], 0.064 µg/mL (≈ 0.147 µM). The minimal inhibitory concentration (MIC) with Escherichia coli [5] was 128 µg/mL (≈ 294 µM); in the assay on Klebsiella oxytoca [6] it was at least 256 µg/mL; in the assay with Escherichia coli [7], 0.023 µg/mL (≈ 0.0528 µM); against Klebsiella oxytoca [8], at least 256 µg/mL.
Regarding `CO[C@@]1(NC(=O)Cc2cccs2)C(=O)N2C(C(=O)O)=C(COC(N)=O)CS[C@@H]21` [CEFOXITIN], the MIC was 2 µg/mL (≈ 4.68 µM) with Escherichia coli [9]; at least 256 µg/mL against Klebsiella pneumoniae [1]; 3 µg/mL (≈ 7.02 µM) with Klebsiella oxytoca [2]; 2 µg/mL (≈ 4.68 µM) in the assay on Escherichia coli [10]; 4 µg/mL (≈ 9.36 µM) against Klebsiella pneumoniae [3]; 4 µg/mL (≈ 9.36 µM) in the assay on Klebsiella pneumoniae [4]. For the same compound, the minimum inhibitory concentration (MIC) with Escherichia coli [5] was 2 µg/mL (≈ 4.68 µM); with Klebsiella oxytoca [6], at least 256 µg/mL; against Escherichia coli [7] it was 2 µg/mL (≈ 4.68 µM); against Klebsiella oxytoca [8], 3 µg/mL (≈ 7.02 µM).
For the compound `CC(C)(O/N=C(\C(=O)N[C@@H]1C(=O)N2C(C(=O)[O-])=C(C[n+]3ccccc3)CS[C@H]12)c1csc(N)n1)C(=O)O` [CEFTAZIDIME], the minimal inhibitory concentration (MIC) against Escherichia coli [9] was determined as 0.75 µg/mL (≈ 1.37 µM); against Klebsiella pneumoniae [1], 64 µg/mL (≈ 117 µM); with Klebsiella oxytoca [2], 4 µg/mL (≈ 7.32 µM); in the assay with Escherichia coli [10] it was 0.75 µg/mL (≈ 1.37 µM); against Klebsiella pneumoniae [3], 1.5 µg/mL (≈ 2.74 µM); with Klebsiella pneumoniae [4] it was 1 µg/mL (≈ 1.83 µM). Also, the MIC against Escherichia coli [5] was 1 µg/mL (≈ 1.83 µM); in the assay with Klebsiella oxytoca [6] it was at least 256 µg/mL; with Escherichia coli [7] it was 0.25 µg/mL (≈ 0.457 µM); in the assay on Klebsiella oxytoca [8] it was 4 µg/mL (≈ 7.32 µM).
